From publication PMC12624955, “Exploring diarylheptanoid derivatives to target LIMK1 as potential agents against colorectal cancer” (Journal of Enzyme Inhibition and Medicinal Chemistry, 2025)

Experiments:
[1] = target: T1, LIMK1 (Homo sapiens, UniProt P53667); experiment: LanthaScreen Eu kinase binding assay (SelectScreen), LIMK1 inhibition
T1 construct: purchased Thermo Fisher Scientific (SelectScreen Kinase assay service)
Method: The inhibitory activities of the compounds against kinases were tested using the SelectScreen Kinase assay from Thermo Fisher Scientific in Waltham, MA, USA. The LanthaScreen Eu kinase binding assay was used to validate the LIMK1 inhibition activity of the compounds, and was performed according to the manufacturer’s protocol (https://www.thermofisher.com/tw/zt/home/industrial/pharma-biopharma/drug-discovery-development/target-and-lead-identification-and-validation/kinasebiology/kinase-activity-assays/lanthascreentm-eu-kinase-binding-assay/lanthascreen-eu-kinase-binding-assay-validation-table.html). This endpoint assay quantifies inhibitor binding through the displacement of a fluorescently labelled ATP-competitive tracer from LIMK1. A mixture of the 100× compounds, 2× LIMK1/antibody mixture (Eu-anti-His), 4× tracer 236, and kinase buffer were mixed sequentially. After incubation at room temperature for 1 h, the mixture was analysed using a fluorescence plate reader. The kinase inhibition assay results were expressed as the average of two replicates.

[2] = target: T2, AKT1 (PKB alpha) (Homo sapiens, UniProt P31749); experiment: SelectScreen kinase panel, Z′-LYTE kinase assay; assay type: biochemical; conditions: read-out: Inhibition percentage at 1 μM
T2 construct: purchased Thermo Fisher Scientific SelectScreen
T2 sequence (P31749 whole entry): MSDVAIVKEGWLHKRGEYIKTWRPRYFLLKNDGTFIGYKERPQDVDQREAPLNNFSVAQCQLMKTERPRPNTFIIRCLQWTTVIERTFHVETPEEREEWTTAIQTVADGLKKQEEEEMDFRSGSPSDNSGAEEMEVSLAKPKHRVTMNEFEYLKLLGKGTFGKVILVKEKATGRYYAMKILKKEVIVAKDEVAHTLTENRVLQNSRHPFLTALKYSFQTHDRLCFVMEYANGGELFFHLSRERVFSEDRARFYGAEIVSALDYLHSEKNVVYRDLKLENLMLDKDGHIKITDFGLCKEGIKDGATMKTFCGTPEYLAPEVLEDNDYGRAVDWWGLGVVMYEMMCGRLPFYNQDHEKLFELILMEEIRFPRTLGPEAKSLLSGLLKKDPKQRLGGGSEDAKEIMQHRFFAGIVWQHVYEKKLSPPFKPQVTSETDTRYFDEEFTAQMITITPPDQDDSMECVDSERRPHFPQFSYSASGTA
Method: (§1) Kinase panel screening was carried out using the SelectScreen Kinase Assay (Thermo Fisher Scientific, Waltham, MA, USA). Three complementary assay formats were applied: the Z′-LYTE kinase assay, LanthaScreen Eu kinase binding assay, and Adapta Universal kinase assay. The kinases selected for this study and the corresponding assay formats are summarised in Supplementary Table S1.
(§2) The Z′-LYTE Kinase Assay (Thermo Fisher Scientific, Waltham, MA, USA) was used to evaluate selected kinases’ activity, according to the manufacturer’s instructions (https://www.thermofisher.com/tw/zt/home/industrial/pharma-biopharma/drug-discovery-development/target-and-lead-identification-and-validation/kinasebiology/kinase-activity-assays/z-lyte/z-lyte-reactivity-table.html). This endpoint assay quantifies kinase activity by detecting peptide substrate phosphorylation. Briefly, a 2× mixture of selected kinase and relevant substrate was prepared in kinase buffer (0.01% polyoxyethylene lauryl ether (BRIJ-35), 50 mM 4-(2-hydroxyethyl)-1-piperazineethanesulfonic acid (HEPES), pH 7.5, 1 mM ethylene glycol-bis(β-aminoethyl ether)-N,N,N′,N′-tetraacetic acid (EGTA), and 10 mM MgCl2). After 1 h incubation at room temperature, 5 μl of 1:128 diluted development reagent solution was added, followed by an additional 1 h incubation. Fluorescence was recorded using a multimode plate reader.

[3] = target: T3, AURKA (Aurora A) (Homo sapiens, UniProt O14965); experiment: SelectScreen kinase panel, Z′-LYTE kinase assay; assay type: biochemical; conditions: read-out: Inhibition percentage at 1 μM
T3 construct: purchased Thermo Fisher Scientific SelectScreen
Method: as §1, §2

[4] = target: T4, CAMK2B (CaMKII beta) (Homo sapiens, UniProt Q13554); experiment: SelectScreen kinase panel, Z′-LYTE kinase assay; assay type: biochemical; conditions: read-out: Inhibition percentage at 1 μM
T4 construct: purchased Thermo Fisher Scientific SelectScreen
Method: as §1, §2

[5] = target: T5, CSNK1D (CK1 delta) (Homo sapiens, UniProt P48730); experiment: SelectScreen kinase panel, Z′-LYTE kinase assay; assay type: biochemical; conditions: read-out: Inhibition percentage at 1 μM
T5 construct: purchased Thermo Fisher Scientific SelectScreen
Method: as §1, §2

[6] = target: T6, DCAMKL1 (DCLK1) (Homo sapiens, UniProt O15075); experiment: SelectScreen kinase panel, Z′-LYTE kinase assay; assay type: biochemical; conditions: read-out: Inhibition percentage at 1 μM
T6 construct: purchased Thermo Fisher Scientific SelectScreen
T6 sequence (O15075 whole entry): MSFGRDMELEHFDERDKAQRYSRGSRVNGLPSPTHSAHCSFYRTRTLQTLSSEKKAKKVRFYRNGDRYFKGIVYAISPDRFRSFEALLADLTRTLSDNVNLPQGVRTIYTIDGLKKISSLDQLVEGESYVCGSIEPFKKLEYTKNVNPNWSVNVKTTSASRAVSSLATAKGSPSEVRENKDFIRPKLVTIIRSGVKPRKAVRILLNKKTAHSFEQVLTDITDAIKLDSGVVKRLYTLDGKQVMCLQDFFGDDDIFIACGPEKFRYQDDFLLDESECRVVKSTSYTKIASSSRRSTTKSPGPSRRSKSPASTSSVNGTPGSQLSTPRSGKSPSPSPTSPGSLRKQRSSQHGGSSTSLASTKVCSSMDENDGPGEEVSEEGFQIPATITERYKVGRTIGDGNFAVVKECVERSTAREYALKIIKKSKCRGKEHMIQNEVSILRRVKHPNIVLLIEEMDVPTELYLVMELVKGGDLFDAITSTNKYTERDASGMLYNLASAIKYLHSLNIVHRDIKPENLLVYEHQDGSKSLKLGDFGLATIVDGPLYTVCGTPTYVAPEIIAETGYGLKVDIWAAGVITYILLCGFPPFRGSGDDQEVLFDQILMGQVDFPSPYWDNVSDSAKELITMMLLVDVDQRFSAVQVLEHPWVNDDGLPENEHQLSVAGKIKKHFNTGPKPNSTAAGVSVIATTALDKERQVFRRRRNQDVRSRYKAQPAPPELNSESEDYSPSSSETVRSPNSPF
Method: as §1, §2

[7] = target: T7, DYRK1B (Homo sapiens, UniProt Q9Y463); experiment: SelectScreen kinase panel, Z′-LYTE kinase assay; assay type: biochemical; conditions: read-out: Inhibition percentage at 1 μM
T7 construct: purchased Thermo Fisher Scientific SelectScreen
Method: as §1, §2

[8] = target: T8, ERBB4 (HER4) (Homo sapiens, UniProt Q15303); experiment: SelectScreen kinase panel, Z′-LYTE kinase assay; assay type: biochemical; conditions: read-out: Inhibition percentage at 1 μM
T8 construct: purchased Thermo Fisher Scientific SelectScreen
Method: as §1, §2

[9] = target: T9, FGFR1 (Homo sapiens, UniProt P11362); experiment: SelectScreen kinase panel, Z′-LYTE kinase assay; assay type: biochemical; conditions: read-out: Inhibition percentage at 1 μM
T9 construct: purchased Thermo Fisher Scientific SelectScreen
Method: as §1, §2

[10] = target: T10, HIPK1 (Myak) (Homo sapiens, UniProt Q86Z02); experiment: SelectScreen kinase panel, Z′-LYTE kinase assay; assay type: biochemical; conditions: read-out: Inhibition percentage at 1 μM
T10 construct: purchased Thermo Fisher Scientific SelectScreen
Method: as §1, §2

[11] = target: T11, IKBKB (IKK beta) (Homo sapiens, UniProt O14920); experiment: SelectScreen kinase panel, Z′-LYTE kinase assay; assay type: biochemical; conditions: read-out: Inhibition percentage at 1 μM
T11 construct: purchased Thermo Fisher Scientific SelectScreen
Method: as §1, §2

[12] = target: T12, IRAK4 (Homo sapiens, UniProt Q9NWZ3); experiment: SelectScreen kinase panel, Z′-LYTE kinase assay; assay type: biochemical; conditions: read-out: Inhibition percentage at 1 μM
T12 construct: purchased Thermo Fisher Scientific SelectScreen
Method: as §1, §2

[13] = target: T13, MAP3K9 (MLK1) (Homo sapiens, UniProt P80192); experiment: SelectScreen kinase panel, Z′-LYTE kinase assay; assay type: biochemical; conditions: read-out: Inhibition percentage at 1 μM
T13 construct: purchased Thermo Fisher Scientific SelectScreen
Method: as §1, §2

[14] = target: T14, MAPK3 (ERK1) (Homo sapiens, UniProt P27361); experiment: SelectScreen kinase panel, Z′-LYTE kinase assay; assay type: biochemical; conditions: read-out: Inhibition percentage at 1 μM
T14 construct: purchased Thermo Fisher Scientific SelectScreen
T14 sequence (P27361 whole entry): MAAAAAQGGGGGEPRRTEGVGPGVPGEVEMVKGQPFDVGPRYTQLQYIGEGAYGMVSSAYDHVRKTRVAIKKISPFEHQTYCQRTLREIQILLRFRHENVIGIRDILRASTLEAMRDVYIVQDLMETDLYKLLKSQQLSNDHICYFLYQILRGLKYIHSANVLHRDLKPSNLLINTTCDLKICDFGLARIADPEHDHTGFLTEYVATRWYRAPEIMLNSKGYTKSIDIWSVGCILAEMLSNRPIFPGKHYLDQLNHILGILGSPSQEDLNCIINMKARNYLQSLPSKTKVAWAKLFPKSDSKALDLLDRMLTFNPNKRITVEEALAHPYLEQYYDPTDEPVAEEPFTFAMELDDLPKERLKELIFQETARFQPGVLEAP
Method: as §1, §2

[15] = target: T15, MARK3 (Homo sapiens, UniProt P27448); experiment: SelectScreen kinase panel, Z′-LYTE kinase assay; assay type: biochemical; conditions: read-out: Inhibition percentage at 1 μM
T15 construct: purchased Thermo Fisher Scientific SelectScreen
Method: as §1, §2

[16] = target: T16, MINK1 (Homo sapiens, UniProt Q8N4C8); experiment: SelectScreen kinase panel, Z′-LYTE kinase assay; assay type: biochemical; conditions: read-out: Inhibition percentage at 1 μM
T16 construct: purchased Thermo Fisher Scientific SelectScreen
T16 sequence (Q8N4C8 whole entry): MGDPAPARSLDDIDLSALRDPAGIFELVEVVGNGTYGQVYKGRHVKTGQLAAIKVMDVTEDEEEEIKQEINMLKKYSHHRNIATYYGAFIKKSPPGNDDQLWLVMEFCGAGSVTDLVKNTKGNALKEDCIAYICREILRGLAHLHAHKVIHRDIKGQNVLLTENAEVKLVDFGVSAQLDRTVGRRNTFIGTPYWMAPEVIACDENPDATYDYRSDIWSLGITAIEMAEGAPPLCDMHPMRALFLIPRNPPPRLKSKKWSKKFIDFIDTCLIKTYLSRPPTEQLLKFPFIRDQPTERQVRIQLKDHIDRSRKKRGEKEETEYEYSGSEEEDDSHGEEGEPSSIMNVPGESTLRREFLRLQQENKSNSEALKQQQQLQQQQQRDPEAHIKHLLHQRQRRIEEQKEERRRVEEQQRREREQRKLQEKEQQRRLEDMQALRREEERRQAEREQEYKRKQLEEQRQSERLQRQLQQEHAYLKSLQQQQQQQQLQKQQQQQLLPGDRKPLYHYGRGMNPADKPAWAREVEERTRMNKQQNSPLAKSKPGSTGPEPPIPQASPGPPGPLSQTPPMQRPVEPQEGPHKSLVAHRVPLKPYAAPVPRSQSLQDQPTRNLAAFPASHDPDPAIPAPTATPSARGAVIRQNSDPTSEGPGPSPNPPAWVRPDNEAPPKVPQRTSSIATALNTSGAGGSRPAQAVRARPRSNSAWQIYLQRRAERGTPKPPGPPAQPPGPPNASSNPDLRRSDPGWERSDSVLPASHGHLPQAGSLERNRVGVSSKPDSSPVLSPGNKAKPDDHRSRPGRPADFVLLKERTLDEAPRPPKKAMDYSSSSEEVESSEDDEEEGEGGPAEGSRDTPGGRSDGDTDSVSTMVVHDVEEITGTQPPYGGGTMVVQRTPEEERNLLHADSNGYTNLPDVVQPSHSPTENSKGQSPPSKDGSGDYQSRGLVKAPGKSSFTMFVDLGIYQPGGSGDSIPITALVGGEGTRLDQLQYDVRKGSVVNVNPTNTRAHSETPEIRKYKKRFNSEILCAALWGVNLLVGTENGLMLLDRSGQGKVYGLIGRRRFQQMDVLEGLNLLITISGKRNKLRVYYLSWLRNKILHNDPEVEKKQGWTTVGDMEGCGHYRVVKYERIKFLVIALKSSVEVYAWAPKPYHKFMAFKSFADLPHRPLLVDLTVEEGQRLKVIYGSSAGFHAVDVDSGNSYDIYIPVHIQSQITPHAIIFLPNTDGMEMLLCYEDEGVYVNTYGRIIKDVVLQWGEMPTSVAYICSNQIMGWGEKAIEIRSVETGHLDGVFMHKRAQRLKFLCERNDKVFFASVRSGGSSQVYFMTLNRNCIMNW
Method: as §1, §2

[17] = target: T17, MKNK1 (MNK1) (Homo sapiens, UniProt Q9BUB5); experiment: SelectScreen kinase panel, Z′-LYTE kinase assay; assay type: biochemical; conditions: read-out: Inhibition percentage at 1 μM
T17 construct: purchased Thermo Fisher Scientific SelectScreen
T17 sequence (Q9BUB5 whole entry): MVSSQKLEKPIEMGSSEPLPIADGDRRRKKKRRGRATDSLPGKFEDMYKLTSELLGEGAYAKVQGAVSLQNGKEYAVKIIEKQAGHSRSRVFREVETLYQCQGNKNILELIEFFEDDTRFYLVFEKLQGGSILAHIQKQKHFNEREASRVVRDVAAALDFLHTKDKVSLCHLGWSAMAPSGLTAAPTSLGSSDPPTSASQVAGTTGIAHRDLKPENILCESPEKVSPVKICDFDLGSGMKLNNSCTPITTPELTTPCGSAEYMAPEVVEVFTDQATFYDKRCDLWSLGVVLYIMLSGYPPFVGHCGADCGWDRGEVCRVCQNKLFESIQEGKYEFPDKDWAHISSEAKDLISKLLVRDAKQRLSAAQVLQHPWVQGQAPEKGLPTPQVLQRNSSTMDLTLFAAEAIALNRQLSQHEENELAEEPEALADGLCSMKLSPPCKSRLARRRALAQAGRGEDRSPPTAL
Method: as §1, §2

[18] = target: T18, NTRK1 (TRKA) (Homo sapiens, UniProt P04629); experiment: SelectScreen kinase panel, Z′-LYTE kinase assay; assay type: biochemical; conditions: read-out: Inhibition percentage at 1 μM
T18 construct: purchased Thermo Fisher Scientific SelectScreen
Method: as §1, §2

[19] = target: T19, PAK2 (PAK65) (Homo sapiens, UniProt Q13177); experiment: SelectScreen kinase panel, Z′-LYTE kinase assay; assay type: biochemical; conditions: read-out: Inhibition percentage at 1 μM
T19 construct: purchased Thermo Fisher Scientific SelectScreen
Method: as §1, §2

[20] = target: T20, PIM1 (Homo sapiens, UniProt P11309); experiment: SelectScreen kinase panel, Z′-LYTE kinase assay; assay type: biochemical; conditions: read-out: Inhibition percentage at 1 μM
T20 construct: purchased Thermo Fisher Scientific SelectScreen
T20 sequence (P11309 whole entry): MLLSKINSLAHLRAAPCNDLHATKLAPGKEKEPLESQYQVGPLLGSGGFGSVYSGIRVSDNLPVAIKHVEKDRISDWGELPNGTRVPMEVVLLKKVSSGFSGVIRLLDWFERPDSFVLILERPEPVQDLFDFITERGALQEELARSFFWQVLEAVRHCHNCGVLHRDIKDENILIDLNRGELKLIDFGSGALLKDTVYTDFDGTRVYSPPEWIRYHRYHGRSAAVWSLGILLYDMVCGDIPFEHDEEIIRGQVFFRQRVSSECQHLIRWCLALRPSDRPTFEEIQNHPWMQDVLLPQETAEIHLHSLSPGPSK
Method: as §1, §2

[21] = target: T21, PLK2 (Homo sapiens, UniProt Q9NYY3); experiment: SelectScreen kinase panel, Z′-LYTE kinase assay; assay type: biochemical; conditions: read-out: Inhibition percentage at 1 μM
T21 construct: purchased Thermo Fisher Scientific SelectScreen
Method: as §1, §2

[22] = target: T22, PRKACA (PKA) (Homo sapiens, UniProt P17612); experiment: SelectScreen kinase panel, Z′-LYTE kinase assay; assay type: biochemical; conditions: read-out: Inhibition percentage at 1 μM
T22 construct: purchased Thermo Fisher Scientific SelectScreen
Method: as §1, §2

[23] = target: T23, PRKCA (PKC alpha) (Homo sapiens, UniProt P17252); experiment: SelectScreen kinase panel, Z′-LYTE kinase assay; assay type: biochemical; conditions: read-out: Inhibition percentage at 1 μM
T23 construct: purchased Thermo Fisher Scientific SelectScreen
Method: as §1, §2

[24] = target: T24, RPS6KA3 (RSK2) (Homo sapiens, UniProt P51812); experiment: SelectScreen kinase panel, Z′-LYTE kinase assay; assay type: biochemical; conditions: read-out: Inhibition percentage at 1 μM
T24 construct: purchased Thermo Fisher Scientific SelectScreen
Method: as §1, §2

[25] = target: T25, SRC (Homo sapiens, UniProt P12931); experiment: SelectScreen kinase panel, Z′-LYTE kinase assay; assay type: biochemical; conditions: read-out: Inhibition percentage at 1 μM
T25 construct: purchased Thermo Fisher Scientific SelectScreen
Method: as §1, §2

[26] = target: T26, STK3 (MST2) (Homo sapiens, UniProt Q13188); experiment: SelectScreen kinase panel, Z′-LYTE kinase assay; assay type: biochemical; conditions: read-out: Inhibition percentage at 1 μM
T26 construct: purchased Thermo Fisher Scientific SelectScreen
T26 sequence (Q13188 whole entry): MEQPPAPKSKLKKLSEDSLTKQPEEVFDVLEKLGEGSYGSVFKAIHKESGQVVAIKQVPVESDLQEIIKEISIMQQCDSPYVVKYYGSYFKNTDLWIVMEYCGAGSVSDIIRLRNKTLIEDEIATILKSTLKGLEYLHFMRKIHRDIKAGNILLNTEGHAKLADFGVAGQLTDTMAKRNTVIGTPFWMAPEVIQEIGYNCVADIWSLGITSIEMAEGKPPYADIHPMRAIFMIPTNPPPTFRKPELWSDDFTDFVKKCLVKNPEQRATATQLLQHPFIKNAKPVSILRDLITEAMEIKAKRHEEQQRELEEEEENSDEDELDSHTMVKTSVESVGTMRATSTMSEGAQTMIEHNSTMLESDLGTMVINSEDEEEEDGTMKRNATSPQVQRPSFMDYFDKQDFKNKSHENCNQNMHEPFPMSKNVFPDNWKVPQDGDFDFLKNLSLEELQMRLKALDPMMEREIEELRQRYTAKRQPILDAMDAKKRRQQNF
Method: as §1, §2

[27] = test system: panel of 40 kinases from various families; experiment: Kinase panel screening (SelectScreen), whole panel; assay type: biochemical; conditions: all 40 kinases; 1 μM
Method: as §1
as §2, with “reader. […]” for “reader.”

T1 sequence (P53667 whole entry): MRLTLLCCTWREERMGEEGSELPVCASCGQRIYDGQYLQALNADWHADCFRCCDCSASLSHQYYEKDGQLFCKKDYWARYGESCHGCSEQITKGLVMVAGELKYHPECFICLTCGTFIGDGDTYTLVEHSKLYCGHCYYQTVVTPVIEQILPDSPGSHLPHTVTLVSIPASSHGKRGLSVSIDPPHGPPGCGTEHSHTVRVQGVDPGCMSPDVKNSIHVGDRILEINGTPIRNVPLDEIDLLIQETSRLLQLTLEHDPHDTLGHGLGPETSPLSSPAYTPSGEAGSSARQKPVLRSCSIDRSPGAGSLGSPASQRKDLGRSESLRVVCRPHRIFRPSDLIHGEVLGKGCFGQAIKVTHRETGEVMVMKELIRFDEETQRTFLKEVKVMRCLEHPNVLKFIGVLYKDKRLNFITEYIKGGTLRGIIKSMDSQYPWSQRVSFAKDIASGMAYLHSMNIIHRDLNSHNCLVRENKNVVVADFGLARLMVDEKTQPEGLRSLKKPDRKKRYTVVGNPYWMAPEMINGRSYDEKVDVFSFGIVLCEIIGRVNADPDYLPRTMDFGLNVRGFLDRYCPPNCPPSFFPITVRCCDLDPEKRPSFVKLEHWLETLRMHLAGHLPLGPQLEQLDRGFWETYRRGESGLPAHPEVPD

With `O=C(/C=C/c1ccc(O)c(O)c1)CCCCn1ccc2c(O)cccc21` [Compound 13a, (E)-1-(3,4-dihydroxyphenyl)-7-(4-hydroxy-1H-indol-1-yl)hept-1-en-3-one] as the compound, how does the IC50 [1] read?
The IC50 was 940 nM.

What about the inhibition at 1 µM ([1]; 1 μM, Figure 4(B), read-out: Inhibition percentage at 1 μM) of the same compound?
Its inhibition at 1 µM is greater than 50%.

What about the inhibition at 10 µM ([1]; compound at 10 μM, average of two replicates, read-out: Inhibition percentage at 10 μM) of the same compound?
Its inhibition at 10 µM is 109%.

And the inhibition at 1 µM [2]?
The inhibition at 1 µM was 2%.

What about the inhibition at 1 µM [3] of the same compound?
Its inhibition at 1 µM is 18%.

What about the inhibition at 1 µM [4] of the same compound?
The inhibition at 1 µM was 19%.

What about the inhibition at 1 µM [5] of the same compound?
The inhibition at 1 µM was 7%.

And the inhibition at 1 µM [6]?
The inhibition at 1 µM was 1%.

And the inhibition at 1 µM [7]?
The inhibition at 1 µM was 4%.

And the inhibition at 1 µM [8]?
The inhibition at 1 µM was 15%.

What about the inhibition at 1 µM [9] of the same compound?
Its inhibition at 1 µM is 3%.

What about the inhibition at 1 µM [10] of the same compound?
Its inhibition at 1 µM is 2%.

And the inhibition at 1 µM [11]?
Its inhibition at 1 µM is 8%.

And the inhibition at 1 µM [12]?
Its inhibition at 1 µM is 4%.

And the inhibition at 1 µM [13]?
The inhibition at 1 µM was 2%.

What about the inhibition at 1 µM [14] of the same compound?
The inhibition at 1 µM was 6%.

What about the inhibition at 1 µM [15] of the same compound?
The inhibition at 1 µM was 6%.

What about the inhibition at 1 µM [16] of the same compound?
Its inhibition at 1 µM is 13%.

And the inhibition at 1 µM [17]?
Its inhibition at 1 µM is 8%.

What about the inhibition at 1 µM [18] of the same compound?
Its inhibition at 1 µM is -7%.

And the inhibition at 1 µM [19]?
Its inhibition at 1 µM is 4%.

And the inhibition at 1 µM [20]?
Its inhibition at 1 µM is 12%.

And the inhibition at 1 µM [21]?
Its inhibition at 1 µM is 16%.

And the inhibition at 1 µM [22]?
Its inhibition at 1 µM is 5%.

What about the inhibition at 1 µM [23] of the same compound?
The inhibition at 1 µM was 13%.

And the inhibition at 1 µM [24]?
The inhibition at 1 µM was 8%.

What about the inhibition at 1 µM [25] of the same compound?
The inhibition at 1 µM was 0%.

What about the inhibition at 1 µM [26] of the same compound?
Its inhibition at 1 µM is 0%.

And the “inhibition percentages across the panel of 40 kinases” value [27]?
The value was “below 50%”.
